We go through 45 compounds from ChEMBL document CHEMBL5104129, “Discovery of a novel 2-spiroproline steroid mimetic scaffold for the potent inhibition of 11β-HSD1” (Bioorg Med Chem Lett, 2022).

For series [1], the target named is T1, 11-beta-hydroxysteroid dehydrogenase 1 (Homo sapiens, UniProt P28845). The series is described as follows: Inhibition of 11beta-HSD1 (unknown origin) using 3H-cortisone as substrate by scintillation proximity assay.
The target in series [2] is T2, PXR (NR1I2) (Homo sapiens, UniProt O75469).
T2 sequence (O75469 whole entry): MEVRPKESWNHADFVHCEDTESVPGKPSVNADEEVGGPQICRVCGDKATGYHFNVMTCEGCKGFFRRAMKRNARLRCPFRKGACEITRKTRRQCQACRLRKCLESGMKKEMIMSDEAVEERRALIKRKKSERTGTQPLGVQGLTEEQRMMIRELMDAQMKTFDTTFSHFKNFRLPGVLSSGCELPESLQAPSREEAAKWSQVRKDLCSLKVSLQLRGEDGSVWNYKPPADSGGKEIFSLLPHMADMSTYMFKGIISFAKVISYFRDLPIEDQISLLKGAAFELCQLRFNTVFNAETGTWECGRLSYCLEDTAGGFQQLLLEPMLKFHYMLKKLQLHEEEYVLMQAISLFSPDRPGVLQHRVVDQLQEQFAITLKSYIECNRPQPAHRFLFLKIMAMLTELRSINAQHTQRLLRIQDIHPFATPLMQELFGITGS
As to the kind of experiment: Activation of human PXR assessed as induction of PXR activity at 10 uM relative to control. The conditions noted are these: read-out: Activity.

Series [3] concerns the target hERG (KCNH2) (Homo sapiens, UniProt Q12809). The series is described as follows: Inhibition of human ERG expressed in CHO cells at 30 uM at -80 mV holding potential by automated patch clamp assay relative to control. The conditions noted are these: CHO cells expressing human ERG. It counts as toxicity, cell-based.
For series [4], the target named is T3, PXR (NR1I2) (Rattus norvegicus, UniProt Q9R1A7).
T3 sequence (Q9R1A7 whole entry): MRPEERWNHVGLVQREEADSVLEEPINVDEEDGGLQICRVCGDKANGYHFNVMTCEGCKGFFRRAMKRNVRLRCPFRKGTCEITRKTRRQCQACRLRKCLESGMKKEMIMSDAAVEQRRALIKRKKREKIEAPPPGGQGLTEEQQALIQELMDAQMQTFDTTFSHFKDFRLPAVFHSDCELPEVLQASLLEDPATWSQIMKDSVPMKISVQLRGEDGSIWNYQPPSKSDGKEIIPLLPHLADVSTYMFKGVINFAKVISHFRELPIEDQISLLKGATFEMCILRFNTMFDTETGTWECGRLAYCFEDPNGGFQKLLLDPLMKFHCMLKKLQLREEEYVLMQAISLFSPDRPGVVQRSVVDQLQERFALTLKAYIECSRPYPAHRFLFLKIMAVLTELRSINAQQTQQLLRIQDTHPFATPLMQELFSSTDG
As to the kind of experiment: Activation of rat PXR assessed as induction of PXR activity at 10 uM relative to control. The conditions noted are these: read-out: Activity.

Series [5] deals with T1, 11-beta-hydroxysteroid dehydrogenase 1. The series is described as follows: Inhibition of 11beta-HSD1 in human PBMC cells using 3H-cortisone as substrate assessed as conversion of cortisone to cortisol by ELISA. Type of series: cell-based.

Some results are limits rather than exact numbers.

T1 sequence (P28845 whole entry): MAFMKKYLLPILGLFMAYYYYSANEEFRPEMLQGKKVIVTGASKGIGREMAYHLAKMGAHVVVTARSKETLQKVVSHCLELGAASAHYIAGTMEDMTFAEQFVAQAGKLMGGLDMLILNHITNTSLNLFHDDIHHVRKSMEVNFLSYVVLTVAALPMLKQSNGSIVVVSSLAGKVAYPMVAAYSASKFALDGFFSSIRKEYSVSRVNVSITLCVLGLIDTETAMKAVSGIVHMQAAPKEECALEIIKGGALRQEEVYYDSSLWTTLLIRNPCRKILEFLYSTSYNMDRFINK
Chain of hERG (KCNH2) (Q12809 whole entry): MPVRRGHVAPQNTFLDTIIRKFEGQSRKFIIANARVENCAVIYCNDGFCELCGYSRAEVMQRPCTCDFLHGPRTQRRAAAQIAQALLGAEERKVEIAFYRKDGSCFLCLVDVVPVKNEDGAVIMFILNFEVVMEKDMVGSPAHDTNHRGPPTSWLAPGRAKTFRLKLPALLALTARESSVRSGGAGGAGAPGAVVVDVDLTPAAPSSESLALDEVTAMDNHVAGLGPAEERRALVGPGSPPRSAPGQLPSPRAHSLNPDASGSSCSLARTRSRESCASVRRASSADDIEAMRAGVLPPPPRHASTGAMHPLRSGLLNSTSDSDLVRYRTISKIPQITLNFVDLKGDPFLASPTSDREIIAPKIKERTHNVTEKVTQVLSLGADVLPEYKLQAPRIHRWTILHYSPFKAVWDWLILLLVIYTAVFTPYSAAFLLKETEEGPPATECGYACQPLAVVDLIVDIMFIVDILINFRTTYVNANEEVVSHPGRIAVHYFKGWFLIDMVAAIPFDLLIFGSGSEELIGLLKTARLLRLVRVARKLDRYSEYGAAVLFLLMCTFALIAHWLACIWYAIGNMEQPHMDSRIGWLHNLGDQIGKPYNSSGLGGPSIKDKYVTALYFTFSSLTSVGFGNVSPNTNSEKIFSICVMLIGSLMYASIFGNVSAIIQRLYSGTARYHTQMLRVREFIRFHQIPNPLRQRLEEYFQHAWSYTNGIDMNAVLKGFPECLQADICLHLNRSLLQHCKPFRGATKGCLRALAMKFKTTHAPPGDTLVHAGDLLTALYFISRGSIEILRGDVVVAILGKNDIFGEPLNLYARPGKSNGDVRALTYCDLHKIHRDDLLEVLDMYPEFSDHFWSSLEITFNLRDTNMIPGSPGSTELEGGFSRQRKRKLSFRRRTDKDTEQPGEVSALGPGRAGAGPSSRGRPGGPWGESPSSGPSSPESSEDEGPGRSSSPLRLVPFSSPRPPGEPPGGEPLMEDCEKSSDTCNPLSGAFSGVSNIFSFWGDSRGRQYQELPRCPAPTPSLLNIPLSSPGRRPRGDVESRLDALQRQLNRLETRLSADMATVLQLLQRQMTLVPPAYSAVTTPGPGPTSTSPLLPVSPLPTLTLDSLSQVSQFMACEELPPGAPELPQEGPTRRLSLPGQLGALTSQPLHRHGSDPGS

Take `O=C1N(C2CCCC2)CCC12CCCN2Cc1ccc(Cl)cc1` (stereo unspecified): the half-maximal inhibitory concentration (IC50) in series [1] came out at 26 nM.

As for `CN(C)C(=O)c1ccc(-c2ccc(CN3C[C@H](O)C[C@]34CCN(C3CCCCC3)C4=O)cc2)cn1`, the midpoint of inhibition in series [1], the IC50, lay at 35 nM.

As to `CCNC(=O)c1ccc(-c2ccc(CN3CCCC34CCN(C3CCCCC3)C4=O)cc2)cn1` (stereo unspecified), half-maximal inhibition in series [1] (IC50) required 23 nM. The activity at 10 µM in series [2] was 13%; in series [4], 31%. Moreover, the inhibition at 30 µM in series [3] was 15%.

As to `O=C1N(C23CC4CC(CC(C4)C2)C3)CCC12CCCN2CC1CCCC1` (stereo unspecified), the IC50 in series [1] stood at 51 nM.

As to `CNC(=O)c1ccc(-c2ccc(CN3C[C@H](O)C[C@]34CCN(C3CCCCC3)C4=O)cc2)cn1`, the IC50 in series [1] was 3 nM; in series [5], 7.2 nM. The activity at 10 µM in series [2] and in series [4] was -0.3% in each case. The inhibition at 30 µM in series [3] is -14%.

`N#Cc1ccnc(-c2ccc(CN3C[C@H](O)C[C@]34CCN(C3CCCCC3)C4=O)cc2)c1` registered an IC50 in series [1] of 35 nM.

In the case of `O=C1N(C23CC4CC(CC(C4)C2)C3)CCC12CCCN2Cc1ccccn1` (stereo unspecified), the IC50 in series [1] was determined as 134 nM.

Consider `O=C1N(C2CCCCC2)CC[C@]12C[C@@H](O)CN2CC1CCCC1`, for which the IC50 in series [1] came to 30 nM.

In the case of `CCNC(=O)c1ccc(-c2cccc(CN3C[C@H](O)C[C@]34CCN(C3CCCCC3)C4=O)c2)cn1`, the IC50 in series [1] is 227 nM; in series [5], over 37 nM.

In turn, `O=C(c1ccccn1)N1CCCC12CCN(C1CCCCC1)C2=O` (stereo unspecified) gave an IC50 in series [1] of over 1000 nM.

As to `CNC(=O)c1ccc(-c2ccc(CN3C[C@H](O)C[C@]34CCN(C3CCCCC3)C4=O)cc2F)cn1`, the figures for the IC50 in series [1] and in series [5] were 13 nM and 9.5 nM, respectively.

For `CC(C)N1C[C@H](O)C[C@]12CCN(C1CCCCC1)C2=O`, the results for the IC50 in series [1] and in series [5] were over 1000 nM and over 37 nM, respectively. In addition, the activity at 10 µM in series [2] and in series [4] was -0.5% each time. Further, the inhibition at 30 µM in series [3] turned out to be 0%.

With `O=C1N(C2CCCCC2)CC[C@]12C[C@@H](O)CN2CC1CCCCC1`, the IC50 in series [1] came to 15 nM; in series [5], 7 nM. The results for the activity at 10 µM in series [2] and in series [4] were 9% and 14%, respectively. Moreover, the inhibition at 30 µM in series [3] worked out at 8.1%.

`CC(C)CN1CCCC12CCN(C13CC4CC(CC(C4)C1)C3)C2=O` (stereo unspecified): in series [1], half-maximal inhibition (IC50) was put at 400 nM.

With `N#Cc1cccc(-c2ccc(CN3C[C@H](O)C[C@]34CCN(C3CCCCC3)C4=O)cn2)c1`, the figures for the IC50 in series [1] and in series [5] were 92 nM and over 37 nM, respectively.

For the compound `CCNC(=O)c1ccc(-c2cc(CN3C[C@H](O)C[C@]34CCN(C3CCCCC3)C4=O)ccc2F)cn1`, the figures for the IC50 in series [1] and in series [5] were 62 nM and over 37 nM, respectively.

On to `N#Cc1ccc(-c2ccc(CN3C[C@H](O)C[C@]34CCN(C3CCCCC3)C4=O)nc2)cc1`, for which half-maximal inhibition in series [1] (IC50) was put at 230 nM.

`O=C1N(C2CCCCC2)CCC12CCCN2Cc1ccc(Cl)cc1` (stereo unspecified): the IC50 in series [1] is 8 nM. Moreover, the activity at 10 µM in series [2] worked out at 46%; in series [4], 22%. In series [3], the inhibition at 30 µM worked out at 45%.

`O=C1N(C2CCOCC2)CCC12CCCN2Cc1ccc(Cl)cc1` (stereo unspecified) returned an IC50 in series [1] of 45 nM.

`CC(C1CC1)N1C[C@H](O)C[C@]12CCN(C1CCCCC1)C2=O` (stereo partly specified): the IC50 in series [1] is 400 nM; in series [5] it was over 37 nM. Also, the activity at 10 µM came to 1% in series [2] and 2% in series [4]. In series [3], the inhibition at 30 µM was -10%.

Consider `O=C1N(C2CCCCC2)CCC12CCCN2CC1CCOC1` (stereo unspecified), for which the midpoint of inhibition in series [1], the IC50, lay at 460 nM.

Take `O=C1N(C2CCCCC2)CC[C@]12C[C@@H](O)CN2Cc1ccc(-c2ccncc2)cc1`: the IC50 is 7 nM in series [1] and 6.6 nM in series [5].

Regarding `O=C1N(C2CCCCC2)CC[C@]12C[C@@H](O)CN2Cc1ccc(-c2ccc(F)cc2)nc1`, the IC50 in series [1] is 80 nM; in series [5] it was over 37 nM.

Regarding `O=C1N(C2CCCCC2)CC[C@@]12C[C@H](O)CN2Cc1ccc(Cl)cc1`, the values for the IC50 in series [1] and in series [5] were over 1000 nM and over 37 nM, respectively. Besides, the activity at 10 µM in series [2] is 52%; in series [4], 12%. Further, the inhibition at 30 µM in series [3] is -4.3%.

For the compound `O=C1N(C2CCCCC2)CC[C@]12C[C@@H](O)CN2Cc1ccc(Cl)cc1`, the IC50 in series [1] was determined as 6 nM; in series [5], 6.2 nM. For the same compound, the activity at 10 µM in series [2] came to 42%; in series [4], 16%. Also, the inhibition at 30 µM in series [3] was found to be 14%.

Take `CC1(O)CN(Cc2ccc(Cl)cc2)[C@@]2(CCN(C3CCCCC3)C2=O)C1` (stereo partly specified): the IC50 in series [1] was 999 nM; in series [5], over 37 nM. The activity at 10 µM stood at 9.5% in series [2] and 41% in series [4]. Besides, the inhibition at 30 µM in series [3] was determined as 13%.

The compound `O=C1N(C2CCCCC2)CCC12CCCN2Cc1cccc(C(F)(F)F)c1` (stereo unspecified) displayed an IC50 in series [1] of 40 nM.

In series [1], `O=C1N(C2CCCCC2)CCC12C[C@@H](O)CN2Cc1ccc(Cl)cc1` (stereo partly specified) displayed an IC50 of 7 nM. Besides, the results for the activity at 10 µM in series [2] and in series [4] were 18% and 10%, respectively. In addition, the inhibition at 30 µM in series [3] is 27%.

On to `O=C1N(c2ccccc2Cl)CCC12CCCN2CC1CC1` (stereo unspecified), for which the IC50 in series [1] turned out to be 500 nM.

With `CNC(=O)c1ccc(-c2ccc(CN3C[C@@H](F)C[C@]34CCN(C3CCCCC3)C4=O)cc2)cn1`, the IC50 in series [1] was determined as 2 nM; in series [5] it was 5.9 nM. The activity at 10 µM in series [2] came to 14%; in series [4] it was 24%. Also, the inhibition at 30 µM in series [3] worked out at 49%.

Turning to `N#Cc1cncc(-c2ccc(CN3C[C@H](O)C[C@]34CCN(C3CCCCC3)C4=O)cc2)c1`, the IC50 in series [1] was 188 nM.

As for `O=C1N(C2CCCCC2)CCC12CCCN2Cc1ccccn1` (stereo unspecified), 63 nM corresponded to half-maximal inhibition in series [1] (IC50).

`O=C1N(C2CCCCC2)CCC12CCCN2CC1CCCC1` (stereo unspecified) yielded an IC50 in series [1] of 36 nM.

`O=C1N(C2CCCCC2)CCC12CCCN2C1CCC1` (stereo unspecified): in series [1], the half-inhibitory concentration (IC50) is over 1000 nM.

Compound `O=C1N(C2CCCCC2)CC[C@]12C[C@@H](O)CN2C1CCCC1` came in with an IC50 in series [1] of 351 nM.

As to `CC(C)NC(=O)c1ccc(-c2ccc(CN3C[C@H](O)C[C@]34CCN(C3CCCCC3)C4=O)cc2F)cn1`, the IC50 in series [1] is 5 nM; in series [5], 4.9 nM.

Consider `O=C1N(C2CCCCC2)CCC12CCCN2CC1CC1` (stereo unspecified), for which inhibition in series [1] was half-maximal at 134 nM (IC50).

`O=C1N(C2CCCCCC2)CCC12CCCN2Cc1ccc(Cl)cc1` (stereo unspecified): the IC50 in series [1] amounted to 7 nM.

`O=C1N([C@H]2CC[C@H](O)CC2)CCC12CCCN2Cc1ccc(Cl)cc1` (stereo partly specified) showed an IC50 in series [1] of 30 nM. Also, the activity at 10 µM was 0.5% in series [2] and 2% in series [4]. The inhibition at 30 µM in series [3] is 13%.

Turning to `N#Cc1ccc(CN2CCCC23CCN(C2CCCCC2)C3=O)cc1` (stereo unspecified), in series [1], half-maximal inhibition (IC50) was put at 29 nM.

With `N#Cc1ccc(-c2ccc(CN3C[C@H](O)C[C@]34CCN(C3CCCCC3)C4=O)cn2)cc1`, the IC50 is 18 nM in series [1] and 35 nM in series [5].

On to `CNC(=O)c1ccc(-c2ccc(CN3C[C@H](O)C[C@]34CCN(C3CCCCC3)C4=O)c(F)c2)cn1`, for which the IC50 in series [1] was 9 nM; in series [5] it was 17 nM.

Compound `O=C1N(C2CCCCC2)CCC12CCCN2Cc1ccc(C(F)(F)F)cc1` (stereo unspecified) showed an IC50 in series [1] of 7 nM. The activity at 10 µM amounted to 80% in series [2] and 12% in series [4]. Also, in series [3], the inhibition at 30 µM was 27%.

In series [1], `O=C1N(C23CC4CC(CC(C4)C2)C3)CCC12CCCN2c1ccc(C(F)(F)F)cn1` (stereo unspecified) showed a 50% inhibitory concentration (IC50) of over 1000 nM.

In the case of `O=C1N(C2CCCCC2)CCC12CCCN2Cc1ccccc1C(F)(F)F` (stereo unspecified), in series [1], the IC50 was found to be 15 nM.
